The values below come from US9127016B2, “Small molecule inhibitors of Dusp6 and uses therefor” (University of Pittsburgh—Of the Commonwealth System of …, priority 2009, dated 2015).

For assay [1], the system named is FGF signaling (d2EGFP reporter). The assay is described as follows: BCI analog SAR: d2EGFP intensity in transgenic zebrafish embryos by densitometry. The class given is in vivo. The note with it: 20 μM, 24 hpf embryos, 6 h; for Activity (BCI = 100): d2EGFP intensity in the dorsal region. As to the method: Transgenic zebrafish embryos (24 hpf) were treated with 20 μM solution of BCI analogs in 0.5% aq DMSO and fluorescence photomicrographs were taken after 6 h. The effectiveness of BCI analogs was evaluated by densitometry (ImageJ) of d2EGFP intensity in the dorsal region.

For assay [2], the system named is FGF signaling (Tg(Dusp6:d2EGFP)pt6 reporter). The assay is described as follows: Transgenic zebrafish chemical screen, d2EGFP fluorescence. Conditions: 24 hpf embryos, 6-8 hours; analogs even at four-fold higher concentrations. The class given is in vivo. As to the method: Tg(dusp6:d2EGFP)pt6 embryos were obtained by natural crossings and incubated at 28.5° C. until they reached 24 hpf. Five transgenic embryos were placed into each well from a 96-well plate in 200 μl of E3, and a 0.5% DMSO solution was added along with compound from each library at 10 μM. The NCI diversity set (NCl/NIH), the Natural Products library (MicroSource Discovery Systems Inc.) and Phosphatase targeted set (Chembridge) were screened in this study. (E)-2-Benzylidene-3-(cyclohexylamino)-2,3-dihydro-1H-inden-1-one (BCI; also known as NSC150117) was identified as a compound that enhanced fluorescence in treated transgenic embryos. Treated embryos were photographed under the same settings for exposure, gain and magnification for each picture using a MZFLIII (Leica) microscrope and fluorescent illumination for GFP using endow cube (Chroma Technology Corp., Rockingham, Vt.). Qimaging software and the Retiga Exi camera (Qimaging, Burnaby, BC Canada) were used to capture the images.
We previously described the generation of a transgenic zebrafish line, (Tg(Dusp6:d2EGFP)pt6) that expresses destabilized green fluorescent protein (d2EGFP) under the control of FGF signaling (Molina, G. A., et al. BMC Dev Biol 7, 62 (2007)). Using Tg(Dusp6:d2EGFP) embryos as a biosensor for FGF signaling, we screened over 5000 diverse compounds assembled from chemical libraries for small molecule modulators of this pathway. Five transgenic embryos at 24 hours post fertilization (hpf) were arrayed into each well of a 96-well plate containing test compounds at 10 μM. d2EGFP intensity in treated embryos was visually analyzed and compared to vehicle control (0.5% DMSO) after 6-8 hours. […] To confirm that BCI hyperactivated FGF signaling, we treated embryos prior to gastrulation (5 hpf), and we analyzed by whole mount in situ hybridization, the expression of ntl (zebrafish brachyury), a known FGF target gene (Latinkic, B. V. et al. Genes Dev 11, 3265-76 (1997)). […] We next determined the BCI structural features required to enhance FGF signaling. Two analogs, (E)-2-benzylidene-2,3-dihydro-1H-inden-1-one (BI) lacking the cyclohexylamino group, and 3-(cyclohexylamino)-2,3-dihydro-1H-inden-1-one (ICD) lacking the benzylidene group were synthesized).

The next assay concerns the target T1, Dusp6 (Homo sapiens, UniProt Q16828).
T1 sequence (Q16828 1-381): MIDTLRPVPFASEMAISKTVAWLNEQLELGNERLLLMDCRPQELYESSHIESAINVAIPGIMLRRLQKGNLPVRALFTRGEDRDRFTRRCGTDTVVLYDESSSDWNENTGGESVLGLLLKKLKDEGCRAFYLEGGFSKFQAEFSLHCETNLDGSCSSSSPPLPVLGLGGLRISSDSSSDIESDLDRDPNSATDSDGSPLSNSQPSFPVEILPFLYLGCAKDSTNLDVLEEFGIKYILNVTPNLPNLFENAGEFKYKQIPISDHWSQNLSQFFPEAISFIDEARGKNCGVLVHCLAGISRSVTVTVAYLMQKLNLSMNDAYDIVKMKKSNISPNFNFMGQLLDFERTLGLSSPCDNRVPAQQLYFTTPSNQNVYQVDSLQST
The assay is described as follows: Basal Dusp6 dephosphorylation of OMFP. It counts as biochemical. Further details: His; made in house. The protocol: For OMFP based ERK2 induced activation of Dusp6, recombinant His-tagged Dusp6 was expressed from a bacterial expression vector and 250 ng were incubated with the indicated concentrations of NSC95397 or BCI. OMFP was added at its apparent Km (100 μM) (Vogt, A. et al. J Biol Chem 280, 19078-86 (2005)). The final reaction volume was 15 μl. After 1 h at RT, OMF fluorescence was measured on an M5 multimode reader (Molecular Devices) at excitation/emission wavelengths of 485/525 nm. To assay activated Dusp6, 210 ng or 2.1 μg of recombinant ERK2 (Cell signaling) were added to Dusp6(210 ng)/BCI(100 μM) mixtures to measure activation at 1:1 and 1:10 ratio of substrate to enzyme. OMFP was immediately added and fluorescence (ex485/em525 nm) was read every 10 min for 130 min. Fold activation was calculated at 60 mins in each experiment.

The next assay has as its target T2, Cdc25B (Homo sapiens, UniProt P30305).
T2 sequence (P30305 1-580): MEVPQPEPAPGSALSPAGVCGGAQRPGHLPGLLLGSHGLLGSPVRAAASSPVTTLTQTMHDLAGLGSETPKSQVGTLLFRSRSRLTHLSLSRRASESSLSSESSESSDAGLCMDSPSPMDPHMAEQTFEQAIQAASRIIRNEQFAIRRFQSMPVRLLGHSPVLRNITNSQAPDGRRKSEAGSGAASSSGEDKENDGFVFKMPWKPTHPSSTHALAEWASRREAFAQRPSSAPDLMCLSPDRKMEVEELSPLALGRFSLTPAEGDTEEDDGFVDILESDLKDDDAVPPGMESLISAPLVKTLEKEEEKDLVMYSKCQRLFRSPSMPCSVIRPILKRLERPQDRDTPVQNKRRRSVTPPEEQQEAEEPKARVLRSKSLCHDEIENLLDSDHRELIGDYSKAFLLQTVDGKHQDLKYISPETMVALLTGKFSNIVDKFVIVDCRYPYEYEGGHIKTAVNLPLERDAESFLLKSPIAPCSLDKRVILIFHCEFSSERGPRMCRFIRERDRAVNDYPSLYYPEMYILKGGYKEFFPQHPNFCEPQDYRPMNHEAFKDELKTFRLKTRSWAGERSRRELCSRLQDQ
The assay is described as follows: OMFP phosphatase assay, Cdc25B. The note with it: 100 μM, positive control. It counts as biochemical. As to the method: (§1) Enzyme activities in the presence or absence of BCI were measured using the artificial substrate […] at concentrations equal to the Km of each enzyme (Cdc25B, PTP1B & Dusp3/VHR) and at optimal pH for individual enzyme activity in a 96-well microtiter plate assay based on previously described methods by Lazo et al. (J Med Chem 44, 4042-9 (2001) and Lazo, J. S. et al. Bioorg Med Chem 14, 5643-50 (2006)). Briefly, the standard assay conditions contained 0.02 mg/ml OMFP in assay buffer (30 mM Tris-HCl (pH8.0), 75 mM NaCl, 1 mM EDTA, 0.33% BSA and 1 mM DTT). Fluorescence emission was measured after a sixty-minute incubation period at ambient temperature using a multiwell plate reader (SpectraMax m5, […]; excitation 485 nm, emission 525 nm). Sodium orthovanadate (100 μM) was used as a positive control for full phosphatase inhibition. IC50 concentrations were determined from three experiments using 10 concentrations of BCI ranging from 300 μM to 15.2 nM and GraphPad Prism 5.0 software.

For the next assay, the target named is T3, PTP1B (Homo sapiens, UniProt P18031).
T3 sequence (P18031 1-435): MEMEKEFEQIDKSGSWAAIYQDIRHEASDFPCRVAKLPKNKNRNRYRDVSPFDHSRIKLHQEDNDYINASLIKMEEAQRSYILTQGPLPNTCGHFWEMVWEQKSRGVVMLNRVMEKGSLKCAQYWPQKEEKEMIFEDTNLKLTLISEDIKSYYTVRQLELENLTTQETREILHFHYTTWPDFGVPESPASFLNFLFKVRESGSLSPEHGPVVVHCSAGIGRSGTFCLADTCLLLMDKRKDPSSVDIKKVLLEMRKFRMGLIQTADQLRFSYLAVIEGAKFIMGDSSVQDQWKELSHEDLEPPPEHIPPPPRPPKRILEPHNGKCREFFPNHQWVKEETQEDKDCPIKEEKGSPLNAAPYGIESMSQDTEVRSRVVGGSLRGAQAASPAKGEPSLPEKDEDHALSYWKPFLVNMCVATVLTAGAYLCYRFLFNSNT
The assay is described as follows: OMFP phosphatase assay, PTP1B. The note with it: 100 μM, positive control. The class given is biochemical. As to the method: as §1

The next assay has as its target Dusp3/VHR (Homo sapiens, UniProt P51452). The assay is described as follows: OMFP phosphatase assay, Dusp3/VHR. Conditions: 100 μM, positive control. The class given is biochemical. As to the method:
as §1

Chain of Dusp3/VHR (P51452 whole entry): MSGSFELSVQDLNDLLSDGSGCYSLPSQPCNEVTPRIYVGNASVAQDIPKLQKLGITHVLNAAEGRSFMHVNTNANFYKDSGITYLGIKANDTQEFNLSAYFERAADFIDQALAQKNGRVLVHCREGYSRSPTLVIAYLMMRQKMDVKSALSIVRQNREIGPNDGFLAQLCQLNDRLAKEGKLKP

As for `O=C1/C(=C/c2ccccc2)C(NC2CCCCC2)c2ccccc21` (single isomer, unassigned; (-)) [(−)-BCI], in assay [1], the “activity of the levorotatory enantiomer relative to the dextrorotatory form” value is given as “twice” and the “Activity (BCI = 100)” value worked out at 156.
`CC(=O)N1CCN(C2/C(=C\c3ccccc3)C(=O)c3ccccc32)CC1` (stereo not shown) [Compound 13]: the “Activity (BCI = 100)” value in assay [1] amounted to 47.
Consider `O=C1/C(=C/c2ccccc2)C(NC2CCCC2)c2ccccc21` (stereo not shown) [Compound 4], for which, in assay [1], the “Activity (BCI = 100)” value amounted to 123.
For the compound `O=C1N[C@H]2[C@H](CS[C@H]2CCCCC(=O)N[C@H]2CC[C@H](NC3/C(=C\c4ccccc4)C(=O)c4ccccc43)CC2)N1` (stereo partly shown) [Compound 19], in assay [1], the “in vivo activity relative to BCI, in words” value is listed as “no effect on FGF signaling” and the “Activity (BCI = 100)” value is given as “No activity,”.
On to `O=C1/C(=C/c2ccccc2)Cc2ccccc21` [Compound 1, (E)-2-benzylidene-2,3-dihydro-1H-inden-1-one], for which, in assay [1], the “in vivo activity relative to BCI, in words” value is “inactive” and the “Activity (BCI = 100)” value was determined as 0. Moreover, the “d2EGFP fluorescence in treated transgenic embryos” value in assay [2] was “inactive”.
`O=C1C(SCCO)=C(SCCO)C(=O)c2ccccc21` [NSC95397, 2,3-bis(2-hydroxyethylthio)naphthalene-1,4-dione, reference compound]: the “effect on basal Dusp6 activity toward OMFP” value at Dusp6 is reported as “blocked basal Dusp6 activity toward OMFP”.
With `CN1CCN(C2/C(=C\c3ccccc3)C(=O)c3ccccc32)CC1` (stereo not shown) [Compound 12], in assay [1], the “Activity (BCI = 100)” value came out at 0.
On the same count and under the same terms, as for `O[C@H]1/C(=C/c2ccccc2)[C@H](NC2CCCCC2)c2ccccc21` (stereo in doubt) [Compound 18, 2-Benzylidene-3-cyclohexylaminoindan-1-ol], the figure is 26.
Still for that read-out and setting: as for `O=C1/C(=C/c2ccccc2)C(N2CCCCC2)c2ccccc21` (stereo not shown) [Compound 7], the figure is 114.
Regarding `[Na+].[Na+].[Na+].[O]=[V]([O-])([O-])[O-]` [Sodium orthovanadate, reference compound], the “inhibition of Cdc25B” value on Cdc25B stood at 100%. The “inhibition of PTP1B” value against PTP1B amounted to 100%. The “inhibition of Dusp3/VHR” value at Dusp3/VHR turned out to be 100%.
For the compound `N#Cc1ccc(/C=C2/C(=O)c3ccccc3C2NC2CCCCC2)cc1` (stereo not shown) [Compound 15], in assay [1], the “activity as compared to BCI” value was 20% and the “Activity (BCI = 100)” value worked out at 20.
For `O=C1/C(=C/c2ccccc2)C(Nc2ccccc2)c2ccccc21` (stereo not shown) [Compound 6], the “Activity (BCI = 100)” value in assay [1] is given as 7.
The same measure, in the same setting: as for `O=C1/C(=C/c2ccccc2)C(N2CCOCC2)c2ccccc21` (stereo not shown) [Compound 9], the figure is 114; as for `O=C1/C(=C/c2ccccc2)C(N2CCNCC2)c2ccccc21` (stereo not shown) [Compound 11], 22.
Consider `O=C1/C(=C/c2ccccc2)C(N2CCSCC2)c2ccccc21` (stereo not shown) [Compound 10], for which the “Activity (BCI = 100)” value in assay [1] was found to be 27.
The same measure, in the same setting: the result for `O=C1/C(=C/c2ccccc2)C(NC2CCCCCC2)c2ccccc21` (stereo not shown) [Compound 5, 2-Benzylidene-3-cycloheptylaminoindan-1-one] reads 127.
Consider `O=C1/C(=C/c2ccc(Cl)cc2)C(NC2CCCCC2)c2ccccc21` (stereo not shown) [Compound 14], for which, in assay [1], the “activity as compared to BCI” value came to 52% and the “Activity (BCI = 100)” value amounted to 52.
